# Data: US7071359B1, “Neuropathy improvers containing nitrogenous compounds as the active ingredient” (Teijin Limited, priority 1999, dated 2006)
# Values joined by “and” are separate entries in the source; they are usually repeats but may differ in a detail not shown here. Identical values can stand only once.
# Assays:
# [1] = system: Mouse neuroblastoma Neuro2A cells; experiment: Promotion activity on the neurite outgrowth (1): proportion of cells with extended neurite; type: cell-based; conditions: for Proportion of cells with neurite (%) mean value ± standard error: 10 nM
# Method: (§1) Mouse neuroblastoma Neuro2A cells (obtained from DAINIPPON PHARMACEUTICAL CO., LTD.) were suspended with a density of 2.5×10^4 cells/mL in DMEM containing 10% FCS and 2 mM of Gln, and were plated on commercially available 24-well tissue culture plates with a quantity of 400 μL/well. After an overnight culture under the conditions where the temperature was 37° C., and the carbon dioxide content of the air was 5%, the media was exchanged to an identical media containing the test compound, and the culture was further continued for 24 hours. Then microscope photographs were taken with a 20× lens. Using the photographs, by counting the total number of cells in the field of view and the number of cells with extended neurite, the proportion of cells with extended neurite is calculated.
# [2] = system: Mouse neuroblastoma Neuro2A cells; experiment: Promotion activity on the neurite outgrowth (2): length of neurite per cell; type: cell-based
# Method: as §1
# The cells used and the performed culture method were identical to those in Reference example (1). After being cultured in a media containing the test compound for 24 hours, microscope photographs were taken with a 20× lens. […] Using image processing software, the area covered by the neurites were calculated, and, since the thickness used to mark the neurite was uniform, the analysis was performed considering that the area was proportional to the length, and allowing to compute the length of neurite per cell.
# [3] = system: Bovine cerebral capillary endothelial cells; experiment: Permeability through the blood brain barrier: incorporation into bovine cerebral capillary endothelial cells; type: in vitro ADME; conditions: test compound 1 μM, 15 minutes, ethanol extraction, HPLC
# Method: Bovine cerebral capillary endothelial cells were cultured on a 100 mm diameter plate (coated with collagen I) to obtain confluency. The cells were cultured for 15 minutes in an incorporation media (141 mM NaCl, 4 mM KCl, 2 mM CaCl2, 1 mM […], 10 mM HEPES, 10 mM D-glucose) containing the test compound (1 μM), to incorporate the test compound into the cells. Then, the test compound incorporated into the cells was extracted with ethanol extraction, and quantified by HPLC. The rate of incorporation was calculated with the equation below. amount of test compound in the ethanol-extracted fraction/amount of test compound in the incorporation solution×100(%)
# [4] = system: Wistar male rats, model for Alzheimer's disease by the continuous intracerebroventricular administration of β-amyloid proteins; experiment: Step-through passive avoidance test in rats given β-amyloid protein continuously into the cerebral ventricle; type: in vivo, rat; conditions: Examples 44-47, β-amyloid protein alone 300 pmol/day, continuous intracerebroventricular by osmotic pump
# Text: A step-through passive avoidance instrument made of two chambers separated by a guillotine door was used as the experimental apparatus. One chamber is an illuminated chamber made of transparent acrylic boards (floor: 15 cm×25 cm, height: 15 cm), the other chamber is a dark chamber made of black acryl boards (same dimensions). In addition, the floor of the dark chamber was equipped with a grid made of 4 mm diameter stainless steel pieces separated by 15 mm spacing. The grid was connected to an apparatus for delivering electric shocks (shock generator scrambler).
# First, the guillotine door was opened for one minute to let a rat freely explore the interior of the apparatus. Then, for acquisition trials, the door was closed and the rat was put into the illuminated chamber. 30 seconds later, the door was opened and immediately after the four legs of the rat were put inside the dark chamber, the door was closed and an electric shock was delivered. The strength of the electric shock was 0.5 mA for 5 seconds. The training was repeated until the rat remained in the illuminated chamber for more than 120 seconds when the rat was placed in the illuminated chamber immediately after the electric shock and the door was opened in a similar way. 24 hours after the acquisition trials, the rat was put into the illuminating chamber for retention trials, 30 seconds after, the guillotine door was opened, and the time taken for the four legs of the rat to enter the dark chamber was measured (step-through latency). The maximum observation time during retention trials was set to 300 seconds.
# (§2) 7 week old Wistar male rats (weight 220 to 250 g) were used (N=5 to 10).
# (§3) β-amyloid protein (1–42) was dissolved in 35% acetonitrile-0.1% trifluoroacetic acid in water, injected in a mini-osmotic pump, which had been set to deliver 300 pmol/day (volume: 230 μL, flow: 0.5 μL/hour), and connected to a dental syringe needle through a polyethylene tube. Animals in control group were connected to a pump to which β-amyloid protein (40–1) orvehicleonly was injected. […]
# [5] = system: Wistar male rats, model for Alzheimer's disease by the continuous intracerebroventricular administration of β-amyloid proteins; experiment: Y-maze test (spontaneous alternation behavior test) in rats given β-amyloid protein continuously into the cerebral ventricle; type: in vivo, rat; conditions: Examples 48-51, β-amyloid protein alone 300 pmol/day, continuous intracerebroventricular by osmotic pump
# Method: A Y-shaped maze made by connecting three arms having a length of 35 cm each, a wall height of 25 cm and a floor width of 10 cm at an angle of 120° with respect to each other. The apparatus was settled on the laboratory floor.
# A rat was placed at the extremity of one of the arms, was allowed to freely explore the maze for 8 minutes, and a record was taken of the order in which the arms were explored by the rat. By calling (A) the “Total arm entries”, and among them, by calling (B) the “Number of spontaneous alternations” which is the number of cases where 3 different arms were selected in sequence, the “Percentage of spontaneous alternations” was calculated with: (B/(A−2))×100.
# as §2
# as §3, with “injected. After anesthetizing the rats with pentobarbital (50 mg/Kg, i.p.), an incision was performed in each of their scalps, and following the brainatlas, holes were drilled in the cranium.” for “injected.”
# [6] = listed as β-amyloid protein (1-42)
# [7] = listed as β-amyloid protein (1–42)
compound,measurement,setting,value
CCCCC[C@H](O)/C=C/[C@H]1[C@H](O)CC(=O)[C@@H]1CCCCCCC(=O)O [PGE1],Proportion of cells with neurite (%) mean value ± standard error,"[1]; Example 52, 24 hours",26.0 ± 3.0%
same,Proportion of cells with neurite (%) mean value ± standard error,"[1]; Example 54, 24 hours",19.5 ± 1.9%
same,Promotion activity on the neurite outgrowth (value relative to PGE1),"[1]; Example 56, 24 hours, 10 μM",1.00
same,Promotion activity on the neurite outgrowth (value relative to PGE1),"[1]; Example 57, 24 hours, 10 μM",1.00
same,Promotion activity on the neurite outgrowth (value relative to PGE1),"[1]; Example 58, 24 hours, 10 μM",1.00
same,Length of neurite per single cell (pixel/cell) mean value ± standard error,"[2]; Example 53, 24 hours, 1 nM",14.2 ± 1.5 pixel/cell
same,Length of neurite per single cell (pixel/cell) mean value ± standard error,"[2]; Example 55, 24 hours, 100 nM",5.7 ± 1.03 pixel/cell
CCCC[C@](C)(O)C/C=C/[C@@H]1[C@H]2CC(CCCCC(=O)O)=C[C@H]2C[C@H]1O [Test compound B],Promotion activity on the neurite outgrowth (value relative to PGE1),"[1]; Example 56, 24 hours, 10 μM",1.63
same,Promotion activity on the neurite outgrowth (value relative to PGE1),"[1]; Example 57, 24 hours, 0.1 μM (PGE1 at 10 μM)",1.12
same,Rate of incorporation into bovine capillary endothelial cells (mean value of two experiments),[3]; Example 61,below detection limit
same,Rate of incorporation into bovine capillary endothelial cells (mean value of two experiments),[3]; Example 62,below detection limit
Cc1cccc(C[C@@H](O)/C=C/[C@@H]2[C@H]3CC(CCCCCN4CCCC4)=C[C@H]3C[C@H]2O)c1 [Test compound C],Promotion activity on the neurite outgrowth (value relative to PGE1),"[1]; Example 56, 24 hours, 10 μM",1.15
Cc1cccc(C[C@H](O)/C=C/[C@@H]2[C@H]3CC(CCCCCN(C)C)=C[C@H]3C[C@H]2O)c1 [Test compound D],Promotion activity on the neurite outgrowth (value relative to PGE1),"[1]; Example 56, 24 hours, 10 μM",1.31
CCCC[C@](C)(O)C/C=C/[C@@H]1[C@H]2CC(CCCCCN(C)C)=C[C@H]2C[C@H]1O [Test compound E],Promotion activity on the neurite outgrowth (value relative to PGE1),"[1]; Example 56, 24 hours, 10 μM",1.58
β-amyloid protein(1-42): β-amyloid protein (1–42) given continuously into the cerebral ventricle by mini-osmotic pump to lower learning and memory in the rat model,Time taken to move into the dark chamber during retention trials mean value ± standard error,[4],140.2 ± 53.8 (n = 5) seconds and 132.8 ± 58.1 (n = 5) seconds
same,Time taken to move into the dark chamber during retention trials mean value ± standard error,[4]; [6],191.7 ± 49.0 s
same,Time taken to move into the dark chamber during retention trials mean value ± standard error,[4]; [7],a decrease in the ability of learning and memory was observed
same,Occurrence of spontaneous alternation behavior mean value ± standard error,[5]; [6],65.6 ± 3.4% and 66.5 ± 4.7% and 59.1 ± 3.0%
same,Occurrence of spontaneous alternation behavior mean value ± standard error,[5]; [7],a decrease in the ability of learning and memory was observed
